# Measured values from US20250099402A1, “COMPOSITIONS OF ASPIRIN AND KETAMINE” (Vitalis Analgesics LLC, priority 2022, published 2025).
# Where two headings read alike, the source gives them in different places.
# Columns and labels:
# [1] = tested on: acute musculoskeletal pain; conditions: data collected from similar trials, same protocol, scales, center and team, agents and doses per Table 5, FIG. 1, cited from earlier work
# [2] = tested on: acute pain due to fracture; conditions: intravenous, public domain data; cited from earlier work
# [3] = cited from earlier work
# [4] = Compatibility of ketamine and aspirin with spray coating solvents; conditions: alcohol solvents for ketamine, aqueous solutions for aspirin
# [5] = Ketamine pharmacokinetics and onset of action by route (background); conditions: ketamine given concurrently through the GI
# [6] = in vivo; cited from earlier work
# [7] = cited from earlier work; remark: listed apart in the source
structure (smiles),measurement,setting,value
"CN1CC[C@]23c4c5ccc(O)c4O[C@H]2[C@@H](O)C=C[C@H]3[C@H]1C5 [IV morphine, Morphine]","reduction of acute musculoskeletal pain, comparator agents",[1],5.1 points
CNC1(c2ccccc2Cl)CCCCC1=O (centres unmarked) [ketamine],"reduction of acute musculoskeletal pain, comparator agents",[1]; listed as intranasal (nebulized) ketamine,about 4 points
same,time of peak pain reduction effect,[2],about 5 mins
same,elimination half-life,[3]; in vivo,2 to 3 h
same,"bioavailability, intramuscular injection",[3]; intramuscular,about 93%
same,"bioavailability, IV",[3]; intravenous,about 100%
same,"time to maximal concentrations, orally",[3]; oral,30 min
same,"bioavailability, oral route","[3]; oral, listed as oral ketamine",18-20%
same,stability in spray coating solvent,[4],reacted with alcohol solvents leading to impurities
same,serum peak concentration later than directly absorbed ketamine,[5],15 to 20 min
NC1(c2ccccc2Cl)CCCCC1=O (centres unmarked) [norketamine],potency as an anesthetic relative to ketamine,[6],one-third to one-fifth
same,plasma levels relative to ketamine,[3]; following oral administration of ketamine,three times higher
"CC(C)Cc1ccc(C(C)C(=O)O)cc1 (centres unmarked) [oral ibuprofen, Ibuprofen]","reduction of acute musculoskeletal pain, comparator agents",[1],2 points
"CN1CC[C@]23c4c5ccc(O)c4O[C@H]2[C@@H](O)C=C[C@H]3[C@H]1C5.O=S(=O)(O)O [oral morphine, Morphine Sulfate]","reduction of acute musculoskeletal pain, comparator agents",[1],about 4 points
N[C@@H]1c2cccnc2[C@H](OC(=O)N2CCC(n3c(=O)[nH]c4ncccc43)CC2)CC[C@H]1c1cccc(F)c1F [rimegepant],absolute oral bioavailability,"[7]; in vivo, po",approximately 64%
same,eliminated in unchanged form,[7]; in vivo,~77 % of the dose
same,time of maximum concentration,[7]; oral administration of NURTEC Orally Disintegrating Tablet,1.5 h
